According to patent publication US8765750B2, “Piperazine compound having a PGDS inhibitory effect” (Taiho Pharmaceutical Co., Ltd., priority 2010, dated 2014):
Where two headings read alike, the source gives them in different places.

Columns and labels:
[1] = system: PGD2 production in the nasal cavities of guinea pigs with antigen-induced rhinitis; experiment: PGD2 production inhibiting action in the nasal cavities of guinea pigs with antigen-induced rhinitis; assay type: in vivo; settings: 30 mg/kg orally 1 hour before induction of rhinitis reaction; washing 30 minutes after induction; * = significance level below 0.05 vs control group
Procedure: A physiological saline solution containing 1 mg/mL of ovalbumin was subcutaneously injected into the back of 5-week-old male Std: Hartley guinea pigs in an amount of 1 mL/body for active sensitization (initial sensitization). One week and two weeks after initial sensitization, 20 μL of a physiological saline solution containing 10 mg/mL of ovalbumin was instilled into each nasal cavity using a micropipette (sensitization by nasal administration). Three weeks after initial sensitization, 20 μL of a physiological saline solution containing 10 mg/mL of ovalbumin was instilled into each nasal cavity using a micropipette to induce a rhinitis reaction.
30 minutes after the induction of a rhinitis reaction, the nasal cavities were washed under pentobarbital sodium anesthesia. A nasal cavity washing liquid (phosphate buffered saline containing 3 mM of EDTA and 10 μM of indomethacin) was flushed using a Peristaltic Pump (Gilson, Inc.) in the direction from the trachea to the upper respiratory tract at a flow rate of 1 mL/min, and the liquid flowing out from the nasal cavities was collected for 1 minute. The collected liquid was centrifuged to separate the supernatant as the nasal cavity washing fluid. The concentration of PGD2 in the nasal cavity washing fluid was determined using an EIA kit (Prostaglandin D2-MOX EIA kit, Cayman Chemical).
The test compound (30 mg/kg) was orally administered 1 hour before induction of a rhinitis reaction. A formula to calculate the rate of decrease in PGD2 in the nasal cavity washing fluid is shown below. Rate (%) of decrease in PGD2 in the nasal cavity washing fluid={(PGD2 concentration in the control group−PGD2 concentration in the compound-administered group)÷(PGD2 concentration in the control group−PGD2 concentration in the normal group)}×100
8 or more cases were obtained from each group to determine whether expression of the PGD2 production inhibiting action occurred, and the PGD2 concentration in the nasal cavity washing fluid was compared between the control group and each compound-administered group. […] When the significance level was below 0.05, the action was considered to be present and indicated by a symbol (*) in the table. Reference Example 18, known as an H-PGDS inhibitor, was used as a positive control substance.

human H-PGDS = human H-PGDS (Homo sapiens (Human), UniProt O60760); experiment: Hematopoietic prostaglandin D synthase (H-PGDS) inhibiting action; assay type: biochemical; settings: for inhibition at 0.1 µM: compound at 0.1 μM, relative to the control group, human H-PGDS, [14C] prostaglandin H2 10 μM, read-out: Inhibition Rate (%) 0.1 μM
human H-PGDS, sequence (O60760 whole entry): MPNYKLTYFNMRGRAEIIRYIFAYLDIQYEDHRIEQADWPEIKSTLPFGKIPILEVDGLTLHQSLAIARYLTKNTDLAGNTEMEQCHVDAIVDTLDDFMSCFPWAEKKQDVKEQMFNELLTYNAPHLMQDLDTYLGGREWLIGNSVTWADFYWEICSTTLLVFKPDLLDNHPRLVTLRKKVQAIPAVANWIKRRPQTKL
Procedure: The test was carried out according to the method of Urade, Y. et al. (J. Biol. Chem., 262, 3820-3825, (1987)). More specifically, the reaction mixture (49 μL) containing 100 mM Tris-HCl (pH 8.0), 1 mM reduced glutathione, 0.1 mg/mL γ-globulin, and human H-PGDS (q.s.), and a compound (final concentration: 0.01-100 μM) was preincubated at 25° C. for 5 minutes. A DMSO solution (final concentration: 1%) was added to the solvent control group. Subsequently, 1 μL of [^14C] prostaglandin H2 (final concentration: 10 μM) was added to start the reaction. One minute after the start of the reaction, 250 μL of a reaction stop solution (diethylether/methanol/1 M citric acid (30/4/1) at a temperature of −20° C. was added to stop the reaction. After the reaction was stopped, 50 μL of the upper-layer portion (organic solvent layer) was applied to a TLC plate and developed at −20° C. for 45 minutes (developing solvent: diethylether/methanol/acetic acid (90/2/1)). After drying the TLC plate, the TLC plate was exposed to an imaging plate for 1 to 24 hours, and the radioactivity corresponding to prostaglandin D2 (PGD2) was analyzed using an image analyzer (produced by Fujifilm Corporation). […]

IC50 (human H-PGDS; inhibition concentration at 50% relative to H-PGDS, read-out: IC50)	Compound	Rate (%) of decrease in PGD2 in the nasal cavity washing fluid [1]	inhibition at 0.1 µM (human H-PGDS)	IC50 (human H-PGDS)
0.041 µM	Cn1cccc1C(=O)N1CCN(C(=O)NC2CCN(c3ccc(C(=O)N4CCCCC4)cc3)CC2)CC1 [Compound 5, 4-((1-methylpyrrol-2-yl)-carbonyl)-N-(1-(4-(1-piperidinylcarbonyl)phenyl)-piperidin-4-yl)-1-piperazinecarboxamide]	88.0* %	67.6%	
	O=C(Nc1ccc(C(F)(F)F)cc1)N1CCN(C(=O)c2cccc(F)n2)CC1 [Reference Example 17, 4-(6-fluoropyridine-2-carbonyl)-piperazine-1-carboxylic acid-(4-trifluoromethylphenyl)-amide, reference compound]	31.0%	1.8%	5.82 µM
